The values below come from ChEMBL document CHEMBL1201862, “PubChem BioAssay data set” (2004).

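Assay format: 96-well plates, 48-hour exposure. The concentration for 50% growth inhibition is given as GI50.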 Activity calls are given as the source filed them. Cut-off read from the data, not from the text of the source: active = GI50 up to about 1.1 µM and inactive = higher. Where only a bound is given, the exact number is not on record here.

Test systems include U-251; TK-10; OVCAR-8; MOLT-4; NCI-H226; NCI-H23; COLO 205; OVCAR-5; MCF7; Hs-578T; SN12C; SK-MEL-5; LOX IMVI; ACHN; RXF 393; BT-549; MDA-N; SF-268; IGROV-1; HOP-62.
Common to all, as to assay: growth of human tumour cells (NCI), 48 h

Turning to `Nc1ccn(C2OC(COC(=O)C34CC5CC(CC(C5)C3)C4)C(O)C2O)c(=O)n1` (stereo not drawn), the GI50 in the assay on U-251 is > 100 µM (inactive); with TK-10, > 100 µM (inactive); in the assay on OVCAR-8, 24.2 µM (inactive); in the assay with MOLT-4, 0.0679 µM (active); with NCI-H226, > 100 µM (inactive); in the assay with NCI-H23, 12.2 µM (inactive). In addition, the GI50 is 59 µM (inactive) with COLO 205; > 100 µM (inactive) in the assay with OVCAR-5; 4.81 µM (inactive) in the assay with MCF7; > 100 µM (inactive) with Hs-578T; > 100 µM (inactive) in the assay on SN12C; > 100 µM (inactive) with SK-MEL-5. Moreover, the GI50 with LOX IMVI is 7.01 µM (inactive); with ACHN, 1.77 µM (inactive); in the assay on RXF 393 it was > 100 µM (inactive); in the assay on BT-549, > 100 µM (inactive); in the assay on MDA-N it was > 100 µM (inactive); in the assay with SF-268, > 50.5 µM (inactive). The results for the GI50 in the assay with IGROV-1 and in the assay with HOP-62 were > 100 µM (inactive) and 0.973 µM (active), respectively.

On to `O=C(O)C(Cc1ccccc1)Cc1ccccc1`, for which the GI50 in the assay on U-251, with TK-10, in the assay on OVCAR-8, with MOLT-4, with NCI-H226 and in the assay on NCI-H23 was > 100 µM (inactive) each time. The GI50 was > 100 µM (inactive) in the assay on COLO 205; > 100 µM (inactive) in the assay on OVCAR-5; > 100 µM (inactive) in the assay with MCF7; 7.48 µM (inactive) in the assay with Hs-578T; > 100 µM (inactive) in the assay with SN12C; > 100 µM (inactive) with SK-MEL-5. Besides, the GI50 in the assay with LOX IMVI, in the assay with ACHN, in the assay with RXF 393, with BT-549, in the assay on MDA-N and in the assay on SF-268 was > 100 µM (inactive) throughout. Besides, the GI50 in the assay with IGROV-1 and with HOP-62 was > 100 µM (inactive) throughout.

Take `COc1c(C(=O)CC2c3c(cc4oc(C)cc(=O)c4c3OC)OC(=N)C2c2nc3ccccc3[nH]2)c(O)c(OC)c2occc12` (stereo not drawn): the GI50 in the assay on U-251, in the assay with TK-10, with OVCAR-8, with MOLT-4, with NCI-H226 and in the assay with NCI-H23 was > 100 µM (inactive) each time. Further, the GI50 with COLO 205, in the assay on OVCAR-5, in the assay with MCF7, with Hs-578T, in the assay with SN12C and with SK-MEL-5 was > 100 µM (inactive) each time. Also, the GI50 in the assay with LOX IMVI, in the assay on ACHN, in the assay on RXF 393, with BT-549, with MDA-N and with SF-268 was > 100 µM (inactive) in each case. Also, the GI50 with IGROV-1 and in the assay with HOP-62 was > 100 µM (inactive) throughout.

For the compound `Nc1nc2cc(Cl)ccc2n1N`, the GI50 in the assay with U-251, with TK-10, in the assay on OVCAR-8, in the assay on MOLT-4, in the assay on NCI-H226 and with NCI-H23 was > 100 µM (inactive) in each case. For the same compound, the GI50 with COLO 205, with OVCAR-5, in the assay on MCF7, in the assay with Hs-578T, with SN12C and with SK-MEL-5 was > 100 µM (inactive) each time. For the same compound, the GI50 is > 100 µM (inactive) in the assay with LOX IMVI; > 100 µM (inactive) in the assay on ACHN; 67 µM (inactive) with RXF 393; 45.5 µM (inactive) in the assay with BT-549; > 100 µM (inactive) with MDA-N; > 100 µM (inactive) with SF-268. Besides, the GI50 in the assay with IGROV-1 is > 100 µM (inactive); in the assay on HOP-62, 87.1 µM (inactive).

As for `CC(=O)NCCCCN(CCCNC(C)=O)C(=O)OCc1ccccc1`, the GI50 in the assay on U-251, with TK-10, in the assay on OVCAR-8, in the assay on MOLT-4, in the assay on NCI-H226 and in the assay with NCI-H23 was > 100 µM (inactive) throughout. Besides, the GI50 with COLO 205, in the assay on OVCAR-5, in the assay with MCF7, in the assay with Hs-578T, in the assay on SN12C and with SK-MEL-5 was > 100 µM (inactive) throughout. Also, the GI50 with LOX IMVI, in the assay with ACHN, with RXF 393, in the assay on BT-549, in the assay on MDA-N and in the assay on SF-268 was > 100 µM (inactive) throughout. Further, the GI50 with IGROV-1 and in the assay with HOP-62 was > 100 µM (inactive) in each case.

For `CCN(CC)CCO/N=C1\CC[C@H]2[C@@H]3CC=C4C[C@@H](O)CC[C@]4(C)[C@H]3CC[C@]12C`, the GI50 was 14.4 µM (inactive) with U-251; 27.6 µM (inactive) with TK-10; 21.5 µM (inactive) in the assay with OVCAR-8; 15.7 µM (inactive) in the assay with MOLT-4; 15 µM (inactive) in the assay with NCI-H226; 16.2 µM (inactive) with NCI-H23. Besides, the GI50 with COLO 205 was 12.8 µM (inactive); in the assay on OVCAR-5, 33 µM (inactive); in the assay with MCF7 it was 16.6 µM (inactive); in the assay on Hs-578T, 34 µM (inactive); in the assay on SN12C it was 45.6 µM (inactive); in the assay on SK-MEL-5, 12.1 µM (inactive). The GI50 in the assay with LOX IMVI is 16.5 µM (inactive); in the assay on ACHN it was 35.8 µM (inactive); with RXF 393 it was 17.5 µM (inactive); in the assay with BT-549 it was 16.8 µM (inactive); in the assay with MDA-N, 23 µM (inactive); with SF-268, 34 µM (inactive). Also, the results for the GI50 in the assay on IGROV-1 and in the assay with HOP-62 were 31.8 µM (inactive) and 17.6 µM (inactive), respectively.

Turning to `OCCOCCN1CCN(c2nc(N3CCCC3)c3nc(Cl)c(NCc4ccccc4)nc3n2)CC1`, the GI50 in the assay with U-251 is 12 µM (inactive); in the assay on TK-10, 12.4 µM (inactive); in the assay on OVCAR-8, 17.4 µM (inactive); in the assay on MOLT-4 it was 10.7 µM (inactive); with NCI-H226 it was 20.8 µM (inactive); in the assay with NCI-H23, 16.3 µM (inactive). Also, the GI50 with COLO 205 is 7.35 µM (inactive); in the assay on OVCAR-5, 15.1 µM (inactive); with MCF7 it was 13.9 µM (inactive); in the assay on Hs-578T, 17.7 µM (inactive); with SN12C, 15.6 µM (inactive); with SK-MEL-5, 5.55 µM (inactive). The GI50 is 10.5 µM (inactive) in the assay on LOX IMVI; 14 µM (inactive) in the assay on ACHN; 1.98 µM (inactive) in the assay on RXF 393; 15.3 µM (inactive) with BT-549; 10.3 µM (inactive) in the assay on MDA-N; 16.5 µM (inactive) with SF-268. Besides, the GI50 with IGROV-1 is 18.3 µM (inactive); in the assay on HOP-62, 12.6 µM (inactive).

As to `CCOC(=O)/C(C(N)=O)=C(O)/C(O)=C/C(=O)c1ccc(Cl)cc1`, the GI50 in the assay on U-251 was 15.6 µM (inactive); in the assay on TK-10, 8.63 µM (inactive); with OVCAR-8, 17.7 µM (inactive); in the assay with MOLT-4, 20.1 µM (inactive); in the assay on NCI-H226 it was 23.2 µM (inactive); in the assay on NCI-H23, 18.3 µM (inactive). Also, the GI50 in the assay on COLO 205 was 17.8 µM (inactive); in the assay with OVCAR-5 it was 23.5 µM (inactive); in the assay on MCF7 it was 23.8 µM (inactive); with Hs-578T it was 42.1 µM (inactive); in the assay with SN12C it was 16.5 µM (inactive); in the assay on SK-MEL-5, 19.9 µM (inactive). Besides, the GI50 in the assay on LOX IMVI was 16.3 µM (inactive); with ACHN it was 20 µM (inactive); with RXF 393 it was 15.9 µM (inactive); in the assay on BT-549, 18 µM (inactive); with MDA-N, 14.8 µM (inactive); in the assay with SF-268, 20.6 µM (inactive). In addition, the GI50 is 18 µM (inactive) in the assay on IGROV-1 and 21.9 µM (inactive) in the assay with HOP-62.

As to `Cc1ccc([N+](=O)[O-])cc1S(=O)(=O)Nc1ccc(C(=O)/C=C/c2ccccc2)cc1`, the GI50 with TK-10 was 31.3 µM (inactive); in the assay on OVCAR-8 it was 23.2 µM (inactive); in the assay on MOLT-4 it was 4.51 µM (inactive); with NCI-H226, 28.6 µM (inactive); with NCI-H23, 16.7 µM (inactive); in the assay on COLO 205 it was 20.6 µM (inactive). Moreover, the GI50 in the assay on OVCAR-5 is 25.6 µM (inactive); with MCF7, 10.1 µM (inactive); with Hs-578T it was 50.6 µM (inactive); in the assay on SN12C it was 19.8 µM (inactive); with SK-MEL-5, 16.3 µM (inactive); with LOX IMVI, 19 µM (inactive). Further, the GI50 in the assay on ACHN was 13.2 µM (inactive); with RXF 393 it was 11.4 µM (inactive); in the assay with BT-549, 17.7 µM (inactive); in the assay with MDA-N, 20.2 µM (inactive); in the assay with SF-268, 24.3 µM (inactive); in the assay on IGROV-1 it was 18.7 µM (inactive). The GI50 with HOP-62 is 17.7 µM (inactive).

Consider `COc1ccc(/C=C(\C#N)c2nc(-c3cc4ccccc4oc3=O)cs2)cc1`, for which the GI50 with U-251 was 13.5 µM (inactive); with TK-10, 26.2 µM (inactive); in the assay on OVCAR-8, 18.1 µM (inactive); in the assay on MOLT-4, > 100 µM (inactive); in the assay with NCI-H226, 31.6 µM (inactive); in the assay with COLO 205, 50.6 µM (inactive). Also, the GI50 was 51.1 µM (inactive) in the assay on OVCAR-5; 55.7 µM (inactive) in the assay on MCF7; 24.6 µM (inactive) in the assay with Hs-578T; 23.8 µM (inactive) in the assay with SN12C; 22.1 µM (inactive) with SK-MEL-5; 30.5 µM (inactive) in the assay on LOX IMVI. The GI50 with ACHN is 19 µM (inactive); with RXF 393, 21.1 µM (inactive); in the assay with BT-549 it was 14.2 µM (inactive); in the assay on MDA-N it was 44.5 µM (inactive); with SF-268, 17.9 µM (inactive); with IGROV-1 it was 22.2 µM (inactive). In the assay with HOP-62, the GI50 is 15.2 µM (inactive).
